From patent publication US20050019746A1, “Apoptosis-related kinase/GPCRs” (EiRx Therapeutics Limited, priority 2003, published 2005)

Assays:
Format in all cases: cell-based, human
[1] = test system: PC3 cells; experiment: 10-14 day Clonagenicity Assay (MTT), PC3; conditions: for percentage survival relative to the missense, n = 1: independent experiment n = 1, dilution point of maximum toxicity; for percentage survival relative to the missense, n = 3: independent experiment n = 3, dilution point of maximum toxicity; for percentage survival relative to the missense, n = 2: independent experiment n = 2, dilution point of maximum toxicity
Excerpt: The Clonagenicity Assay represents a Cell Viability Screen that allows assessment of a cytotoxic insult at a variety of seed densities of cancer cell lines over an extended period of logarithmic growth, such that the definitive effect of the test substance can be accurately quantified. In this instance, the ‘cytotoxic insult’ to be tested involves the transfection of siRNA Oligomers to knockdown the expression of novel target Kinases and GPCRs as outlined previously. Cell number is quantified 10-14 days post siRNA transfection by MTT conversion as described in detail in Example 6.
The Clonagenicity Assay is optimised for each cell line examined with respect to seed number. The seed number varies for each cell line and accounts for the differences in cell size, growth rate and sensitivity to transfection-induced toxicity for each cell line pursued. Cells lines given as models for this example include HCT15, MCF7, A549, SKOV3, DU145, U251, PC3, A498 and HeLa. The siRNA oligo to Survivin serves as a positive control for toxicity in this assay and the missense control oligomer acts as a negative control as described in detail in Examples 5 and 6. The c-Raf, BCL2 and PI3K siRNA oligomers serve as additional controls as previously mentioned. The Clonagenicity assay is performed as outlined below.
Cells are seeded into a 96-well plate as described below and allowed to adhere overnight at 37° C. in a humidified atmosphere containing 5% CO2 in air. Wells are seeded with an appropriate cell number (cell line dependent) in Column 1 of the 96 well plates and this cell suspension is diluted 1 in 2 across the 96 well plates from Column 1 through to 6 (represented on the x-axis in results). Cells are next transfected with siRNA Oligomers, at a concentration of 2 μg/ml, against the genes of interest. Transfections continue for 4 hrs after which the transfection solution is removed and cells are refed with fresh medium and allow to incubate overnight. An additional media change@24 hrs post transfection is made to minimise toxicity of the transfection reagent. Cells are subsequently incubated for a 10-14 Day period post transfection at a 37° C. incubation as described above. Medium is renewed weekly following which MTT quantification is performed as described in Example 5.
To be considered cytotoxic, the siRNA Oligo against the gene target must induce a decreased viability in a cell line across at least 2 seed densities in the clonagenicity assay, such that a significant difference between the target gene and MS is observed i.e. no crossing of the Standard Error bars is detected. The average percentage viability, relative to missense, is recorded for the dilution point at which Maximum Toxicity is induced is recorded in Table 13.
Table 13 Clonagenicity Assay—This table gives the average percentage survival of the indicated cell lines relative to the missense in a clonagenicity assay, over 3 independent experiments. As an internal reference, the known survival gene ‘Survivin’, BCL2, c-Raf and PI3KR1 was also targeted by siRNA. When no Cytotoxic response is detected ‘-’ is recorded.

[2] = test system: target gene mRNA in U251 cells; experiment: Knockdown by RNAi, QPCR, U251 cells; conditions: U251, 24 hrs post transfection, relative to missense control
Description: (§1) These siRNA oligos are initially tested for efficacy in a cell line in which the gene is expressed for example in the Hela, U251, TF1 or DU145 cell lines. Cells are plated at a density of between 7.5-10×10^4 in each well of a 6 well plate and incubated at 37° C. overnight in DMEM culture medium (1× Dulbeccos modified Eagles medium (Sigma D2554), 0.004% folic acid, 4 mM L-glutamine, 0.37% sodium bicarbonate, 0.1 mM sodium pyruvate) containing 10% fetal calf serum (FCS). 2 μg of duplex siRNA is transfected into cells using DMRIE-C reagent (Invitrogen 10459-014) according to methods described in U.S. Patent Application No. 60/498,488. In brief, to prepare 1 ml of a transfection solution 2 μg of siRNA duplex in added to 1 ml of Optimem (Gibco), to which 8 μl of DMRIE C reagent is added. Transfection mix is added directly to the cells and incubated for 4 hrs at 37° C. Post this 4 hr incubation, transfection solution is removed and cells are refed with fresh culture medium and incubated for a further 24 hrs. An additional medium change is required at this point to minimise toxicity of the transfection procedure. Cells are harvested at 24 or 48 hrs post transfection for analysis of mRNA expression. […]
(§2) After DMRIE transfections with siRNA Oligos against the apoptosis associated genes identified herein, or controls, cells are harvested at 24 or 48 hours post transfection as stated previously. […] RNA is quantified by spectrophotometric analysis and 1 μg is reverse transcribed into cDNA using SuperScriptII RNAseH-Reverse Transcriptase (Invitrogen 18064-014). […] QPCR primers are designed to amplify a PCR product of approximately 100 to 300 nucleotides in length from the CDS, following the guidelines outlined in the Quantitect SYBR Green PCR handbook from Qiagen.
(§3) Two template standards are used for quantitative PCR assessment of mRNA levels: • 1. A control RPS13 i.e. Ribosomal Protein Sub unit 13 (NM_001017) amplified PCR product diluted to [1000,100,10,1 and 0.1 fg] respectively, used to quantify the level of transcript; • 2. […]

[3] = test system: target gene mRNA in DU145 cells; experiment: Knockdown by RNAi, QPCR, DU145 cells; conditions: DU145, 24 hrs post transfection, relative to missense control
Description: as §1, §2, §3

Substance	percentage survival relative to the missense, n = 1 [1] [%]	% Knockdown by RNAi, U251 [2] [%]	percentage survival relative to the missense, n = 3 [1] [%]	percentage survival relative to the missense, n = 2 [1] [%]	% Knockdown by RNAi, DU145 [3] [%]
siRNA PSKH1: sense GAACCUGCACCGCUCCAUAtt, antisense UAUGGAGCGGUGCAGGUUCtt (sense GAACCUGCACCGCUCCAUATT; antisense UAUGGAGCGGUGCAGGUUCTT; chemistry not given here)	29.8	–	–	–	–
siRNA P14KB: sense GCUACGGAAGCUGAUCCUCtt, antisense GAGGAUCAGCUUCCGUAGCtt (sense GCUACGGAAGCUGAUCCUCTT; antisense GAGGAUCAGCUUCCGUAGCTT; chemistry not given here)	–	36	8.4	–	–
siRNA ROCK: siRNA duplex, sense UACAUGCCUGGUGGAGAUCtt, antisense GAUCUCCACCAGGCAUGUAtt; same in Tables 9 and 11 (sense UACAUGCCUGGUGGAGAUCTT; antisense GAUCUCCACCAGGCAUGUATT; chemistry not given here)	50.4	–	22.8	32.3	–
siRNA MAK: sense GAAGCCAAGCAUGGGUGUUtt, antisense AACACCCAUGCUUGGCUUCtt (sense GAAGCCAAGCAUGGGUGUUTT; antisense AACACCCAUGCUUGGCUUCTT; chemistry not given here)	69.6	–	–	–	19
siRNA GRAF: siRNA duplex, sense GCGGAAGUUUGCAGAUUCCtt, antisense GGAAUCUGCAAACUUCCGCtt; same in Tables 9 and 11 (sense GCGGAAGUUUGCAGAUUCCTT; antisense GGAAUCUGCAAACUUCCGCTT; chemistry not given here)	–	–	–	–	84.4
siRNA MAPKK5: sense GAGGACAGGUUAAGCUGUGtt, antisense CACAGCUUAACCUGUCCUCtt (sense GAGGACAGGUUAAGCUGUGTT; antisense CACAGCUUAACCUGUCCUCTT; chemistry not given here)	30.5	–	8.3	–	–
siRNA NTKL: siRNA duplex, sense UGUGGAGCUGAUGAAGCACtt, antisense GUGCUUCAUCAGCUCCACAtt; same in Tables 9 and 11 (sense UGUGGAGCUGAUGAAGCACTT; antisense GUGCUUCAUCAGCUCCACATT; chemistry not given here)	11.6	37	14.4	45.7	–
siRNA Survivin: positive control siRNA, sense GAACUGGCCCUUCUUGGAGtt, antisense CUCCAAGAAGGGCCAGUUCtt (sense GAACUGGCCCUUCUUGGAGTT; antisense CUCCAAGAAGGGCCAGUUCTT; chemistry not given here) [reference compound]	39.2	47	83.6	–	–
siRNA MKNK: sense UACAUGGCCCCUGAGGUAGtt, antisense CUACCUCAGGGGCCAUGUAtt (sense UACAUGGCCCCUGAGGUAGTT; antisense CUACCUCAGGGGCCAUGUATT; chemistry not given here)	–	–	8.4	–	–
siRNA FLT4: sense GUACGGCAACCUCUCCAACtt, antisense GUUGGAGAGGUUGCCGUACtt (sense GUACGGCAACCUCUCCAACTT; antisense GUUGGAGAGGUUGCCGUACTT; chemistry not given here)	–	–	8.4	71.7	85
siRNA EKI: siRNA duplex, sense GCACUGGAUCCAAAGCAUGtt, antisense CAUGCUUUGGAUCCAGUGCtt; same in Tables 9 and 11 (sense GCACUGGAUCCAAAGCAUGTT; antisense CAUGCUUUGGAUCCAGUGCTT; chemistry not given here)	62	–	39.7	40.4	–
